#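 Interpolation was linear, between the two tested concentrations surrounding the appropriate level; five concentrations were tested over 48 hours in 96-well plates. GI50 = concentration required for 50% inhibition of growth. At the TGI there is no net growth.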
# Legend:
# Assay in all cases: growth of human tumour cells (NCI), 48 h
# [1] = system: NCI-H460 lung
# [2] = system: NCI-H522 lung
# [3] = system: NCI/ADR-RES ovarian
# [4] = system: OVCAR-3 ovarian
# [5] = system: OVCAR-4 ovarian
# [6] = system: OVCAR-5 ovarian
# [7] = system: OVCAR-8 ovarian
# [8] = system: PC-3 prostate
# [9] = system: RPMI-8226 leukemia
# [10] = system: RXF 393 renal
# [11] = system: SF-268 CNS
# [12] = system: SF-295 CNS
# [13] = system: SF-539 CNS
# [14] = system: SK-MEL-2 melanoma
# [15] = system: SK-MEL-28 melanoma
# [16] = system: SK-MEL-5 melanoma
# [17] = system: SK-OV-3 ovarian
# [18] = system: SN12C renal
# [19] = system: SNB-19 CNS
# [20] = system: SNB-75 CNS
# [21] = system: SR leukemia
# [22] = system: SW-620 colon
# [23] = system: T-47D breast
# [24] = system: TK-10 renal
# [25] = system: U251 CNS
# [26] = system: UACC-257 melanoma
# [27] = system: UACC-62 melanoma
# [28] = system: UO-31 renal
structure (smiles),measurement,setting,value
O=CNc1ccc2c(c1)Cc1cc([N+](=O)[O-])ccc1-2,GI50,[1],2.78 µM
same,TGI,[1],> 60.3 µM
same,GI50,[2],1.85 µM
same,TGI,[2],7.56 µM
same,GI50,[3],2.77 µM
same,TGI,[3],> 100 µM
same,GI50,[4],1.56 µM
same,TGI,[4],> 100 µM
same,GI50,[5],> 65.5 µM
same,TGI,[5],> 100 µM
same,GI50,[6],4.2 µM
same,TGI,[6],> 100 µM
same,GI50,[7],4.99 µM
same,TGI,[7],> 100 µM
same,GI50,[8],4.87 µM
same,TGI,[8],> 100 µM
same,GI50,[9],> 100 µM
same,TGI,[9],> 100 µM
same,GI50,[10],2.33 µM
same,TGI,[10],> 100 µM
same,GI50,[11],5.02 µM
same,TGI,[11],> 100 µM
same,GI50,[12],0.981 µM
same,TGI,[12],> 100 µM
same,GI50,[13],4.14 µM
same,TGI,[13],> 100 µM
same,GI50,[14],3.58 µM
same,TGI,[14],> 100 µM
same,GI50,[15],> 22.3 µM
same,TGI,[15],> 100 µM
same,GI50,[16],1.53 µM
same,TGI,[16],> 100 µM
same,GI50,[17],4.39 µM
same,TGI,[17],27.4 µM
same,GI50,[18],> 26.2 µM
same,TGI,[18],> 100 µM
same,GI50,[19],5.63 µM
same,TGI,[19],> 100 µM
same,GI50,[20],3.02 µM
same,TGI,[20],> 59.5 µM
same,GI50,[21],2.17 µM
same,TGI,[21],> 100 µM
same,GI50,[22],2.05 µM
same,TGI,[22],> 100 µM
same,GI50,[23],> 100 µM
same,TGI,[23],> 100 µM
same,GI50,[24],10.2 µM
same,TGI,[24],> 100 µM
same,GI50,[25],2.97 µM
same,TGI,[25],> 100 µM
same,GI50,[26],5.39 µM
same,TGI,[26],> 100 µM
same,GI50,[27],4.3 µM
same,TGI,[27],> 100 µM
same,GI50,[28],3.38 µM
same,TGI,[28],> 100 µM

# Source: PubChem BioAssay (NCI)
